Target: hTREM2 (Homo sapiens, UniProt Q9NZC2)
Experiment: Phospho-Syk AlphaScreen/AlphaLISA assay in TREM2 and DAP12 overexpressing HEK293 cells (Example A1)
Type: cell-based
Set-up: expressed in transfected cells
Conditions: HEK293 cells; for EC50: read-out: hTREM2 EC50
In short: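 Agonism read as Syk phosphorylation: compounds in 1% DMSO applied 45 min at room temperature to TREM2/DAP12-HEK293 cells after 20 h culture. Lysis buffer with phosphatase inhibitors and anti-phospho-Syk plus biotinylated anti-Syk antibodies, then AlphaLISA beads (680 nm excitation); percent of control computed from antibody/isotype wells, curves fitted sigmoidally.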

Chain of hTREM2 (Q9NZC2 19-230): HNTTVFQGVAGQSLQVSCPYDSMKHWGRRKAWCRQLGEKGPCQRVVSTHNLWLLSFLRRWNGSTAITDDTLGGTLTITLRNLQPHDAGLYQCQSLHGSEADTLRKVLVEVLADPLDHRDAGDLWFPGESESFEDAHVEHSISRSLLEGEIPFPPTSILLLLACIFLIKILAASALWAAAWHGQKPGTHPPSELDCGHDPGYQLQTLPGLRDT
Chain of hTREM2 (O43914 22-113 partner): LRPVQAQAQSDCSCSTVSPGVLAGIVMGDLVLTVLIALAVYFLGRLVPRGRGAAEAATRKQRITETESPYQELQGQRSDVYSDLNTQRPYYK

Row | Structure (SMILES) | Emax | EC50 [nM]
1 | Cc1nc2cc(N3CCO[C@H](c4cnn(C)c4)C3)nc(-c3ccc(Cl)cn3)c2c(=O)n1C [Example 211, (R)-5-(5-chloropyridin-2-yl)-2,3-dimethyl-7-(2-(1-methyl-1H-pyrazol-4-yl)morpholino)pyrido[4,3-d]pyrimidin-4(3H)-one] | +++ (Emax>200 and ≤300) | 3000 to 100000
2 | Cc1nc2cc(N3CC[C@H](C(F)F)C3)nc(-c3ccc(Cl)cc3F)c2c(=O)n1C [Example 259, (S)-5-(4-chloro-2-fluorophenyl)-7-(3-(difluoromethyl)pyrrolidin-1-yl)-2,3-dimethylpyrido[4,3-d]pyrimidin-4(3H)-one] | ++ (Emax>100 and ≤200) | 3000 to 100000
3 | Cc1nc2cc(N3CCC[C@H](C4CN(C)C4)C3)nc(-c3ccc(Cl)cc3F)c2c(=O)n1C [Example 252, (R)-5-(4-chloro-2-fluorophenyl)-2,3-dimethyl-7-(3-(1-methylazetidin-3-yl)piperidin-1-yl)pyrido[4,3-d]pyrimidin-4(3H)-one] | +++ (Emax>200 and ≤300) | 3000 to 100000
4 | Cc1nc2cc(N3CCC(F)(F)[C@H](N4CCC4)C3)nc(-c3ccc(Cl)cc3F)c2c(=O)n1C [Example 249, (R)-7-(3-(azetidin-1-yl)-4,4-difluoropiperidin-1-yl)-5-(4-chloro-2-fluorophenyl)-2,3-dimethylpyrido[4,3-d]pyrimidin-4(3H)-one] | ++++ (Emax>300) | 500 to 3000
5 | Cc1nc2cc(N3CCO[C@H](c4ccsc4)C3)nc(-c3ccc(Cl)cc3F)c2c(=O)n1C [Example 240, (R)-5-(4-chloro-2-fluorophenyl)-2,3-dimethyl-7-(2-(thiophen-3-yl)morpholino)pyrido[4,3-d]pyrimidin-4(3H)-one] | ++++ (Emax>300) | 3000 to 100000
6 | Cc1ncc([C@H]2CN(c3cc4nc(C)n(C)c(=O)c4c(-c4ccc(Cl)cc4F)n3)CCO2)cn1 (single isomer, unassigned) [Example 65] | ++ (Emax>100 and ≤200) | 3000 to 100000
7 | Cc1nc2cc(N3CCC(c4nccn4C)C3)nc(-c3ccc(Cl)cc3F)c2c(=O)n1C (centres unmarked) [Example 122, 5-(4-chloro-2-fluorophenyl)-2,3-dimethyl-7-(3-(1-methyl-1H-imidazol-2-yl)-1-pyrrolidinyl)pyrido[4,3-d]pyrimidin-4(3H)-one] | + (Emax>45 and ≤100) | 3000 to 100000
8 | COc1ccc([C@@H]2CN(c3cc4nc(C)n(C)c(=O)c4c(-c4ccc(Cl)cc4F)n3)CCO2)cc1 (single isomer, unassigned) [Example 79] | +++ (Emax>200 and ≤300) | 500 to 3000
9 | Cc1nc2cc(N3CCO[C@@H](c4cnn(C)c4)C3)nc(-c3ccc(C(F)(F)F)nc3)c2c(=O)n1C [Example 17, 2,3-dimethyl-7-((2S)-2-(1-methyl-1H-pyrazol-yl)-4-morpholinyl)-5-(6-(trifluoromethyl)-3-pyridinyl)pyrido[4,3-d]pyrimidin-4(3H)-one] |  | 500 to 3000
10 | Cc1nc2cc(N3CCO[C@@H](c4cnn(C(F)CO)c4)C3)nc(-c3ccc(Cl)cc3F)c2c(=O)n1C (stereo partly drawn) [Example 130, 5-(4-chloro-2-fluorophenyl)-7-((2S)-2-(1-(1-fluoro-2-hydroxyethyl)-1H-pyrazol-4-yl)-4-morpholinyl)-2,3-dimethylpyrido[4,3-d]pyrimidin-4(3H)-one] |  | 50 to 500
11 | Cc1nc2cc(N3C[C@@H](C)O[C@@H](C4CC4)C3)nc(-c3ccc(Cl)cc3F)c2c(=O)n1C (single isomer, unassigned) [Example 34] | ++++ (Emax>300) | 500 to 3000
12 | Cc1nc2cc(N3C[C@@H](c4ccsc4)O[C@@H](C)C3)nc(-c3ccc(Cl)cc3F)c2c(=O)n1C (single isomer, unassigned) [Example 72] | ++++ (Emax>300) | 500 to 3000

Results, then the compound that gave them:

Row | Emax | EC50 [nM] | Structure (SMILES)
13 | +++ (Emax>200 and ≤300) | 50 to 500 | Cc1nc2cc(N3CCc4ccncc4C3)nc(-c3ccc(Cl)cc3F)c2c(=O)n1C [Example 102, 5-(4-chloro-2-fluorophenyl)-7-(3,4-dihydro-2,7-naphthyridin-2(1H)-yl)-2,3-dimethylpyrido[4,3-d]pyrimidin-4(3H)-one]
14 | ++++ (Emax>300) | 50 to 500 | Cc1nc2cc(N3CCO[C@H](c4cccnc4)C3)nc(-c3ccc(Cl)cc3F)c2c(=O)n1C [Example 210, (R)-5-(4-chloro-2-fluorophenyl)-2,3-dimethyl-7-(2-(pyridin-3-yl)morpholino)pyrido[4,3-d]pyrimidin-4(3H)-one]
15 | ++++ (Emax>300) | 50 to 500 | COc1cccc([C@H]2CN(c3cc4nc(C)n(C)c(=O)c4c(-c4ccc(Cl)cc4F)n3)CCO2)c1 (single isomer, unassigned) [Example 80]
16 | ++++ (Emax>300) | 50 to 500 | Cc1nc2cc(N3CCOC(c4ccnnc4)C3)nc(-c3ccc(Cl)cc3F)c2c(=O)n1C (centres unmarked) [Example 50, 5-(4-chloro-2-fluorophenyl)-2,3-dimethyl-7-(2-(4-pyridazinyl)-4-morpholinyl)pyrido[4,3-d]pyrimidin-4(3H)-one]
17 |  | 50 to 500 | Cc1ccc(-c2nc(N3CCO[C@@H](c4cnn(C)c4)C3)cc3nc(C)n(C)c(=O)c23)c(F)c1 [Example 12, 5-(2-fluoro-4-methylphenyl)-2,3-dimethyl-7-((2S)-2-(1-methyl-1H-pyrazol-4-yl)-4-morpholinyl)pyrido[4,3-d]pyrimidin-4(3H)-one]
18 | ++++ (Emax>300) | < 50 | CCn1c(C)nc2cc(N3CCO[C@@H](c4cnn(C)c4)C3)nc(-c3ccc(Cl)cc3F)c2c1=O [Example 146, 5-(4-chloro-2-fluorophenyl)-3-ethyl-2-methyl-7-((2S)-2-(1-methyl-1H-pyrazol-4-yl)-4-morpholinyl)pyrido[4,3-d]pyrimidin-4(3H)-one]
19 | ++++ (Emax>300) | 50 to 500 | Cc1nc2cc(N3CCO[C@@H](c4cnn(C)c4)C3)nc(-c3ccc(Cl)cc3)c2c(=O)n1C [Example 5, 5-(4-chlorophenyl)-2,3-dimethyl-7-((2S)-2-(1-methyl-1H-pyrazol-4-yl)-4-morpholinyl)-pyrido[4,3-d]pyrimidin-4(3H)-one]
20 | ++++ (Emax>300) | < 50 | COc1cc([C@H]2C[C@@H](c3cc4nc(C)n(C)c(=O)c4c(-c4ccc(Cl)cc4F)n3)CCO2)ccn1 (single isomer, unassigned) [Example 172]
21 | +++ (Emax>200 and ≤300) | < 50 | COc1cc([C@@H]2C[C@H](c3cc4nc(C)n(C)c(=O)c4c(-c4ccc(Cl)cc4F)n3)CCO2)ccn1 [Example 267, 5-(4-chloro-2-fluorophenyl)-7-((2S,4R)-2-(2-methoxypyridin-4-yl)tetrahydro-2H-pyran-4-yl)-2,3-dimethylpyrido[4,3-d]pyrimidin-4(3H)-one]
22 | +++ (Emax>200 and ≤300) | < 50 | Cc1nc2cc(N3CCO[C@@H](c4ccnc(C(F)(F)F)c4)C3)nc(-c3ccc(Cl)cc3F)c2c(=O)n1C [Example 266, (S)-5-(4-chloro-2-fluorophenyl)-2,3-dimethyl-7-(2-(2-(trifluoromethyl)pyridin-4-yl)morpholino)pyrido[4,3-d]pyrimidin-4(3H)-one]

Reference: patent US20250388574A1, “HETEROCYCLIC COMPOUNDS AS TRIGGERING RECEPTOR EXPRESSED ON MYELOID CELLS 2 AGONISTS AND METHODS OF USE” (AMGEN INC., priority 2020, published 2025)
